This note sets out measurements from patent US20070003626A1, “Sterile in-situ microcarrier forming gelled polymeric dispersions and processes to manufacture the same” (priority 2004, published 2007).

This series is described as follows: Effect of gamma irradiation on paclitaxel stability in various compositions (paclitaxel assay before and after irradiation). In kind it is physicochemical. The text has this: Paclitaxel either as a powder or in solution in different solvents such as DMA, PEG 400, DMA:PEG 400 (25:75% w/w) and in a polymer solution in DMA:PEG 400 (25:75% w/w) was subjected to gamma irradiation sterilization at a dose of 25 KGy and analyzed for paclitaxel content before and after irradiation.

Regarding `CC(=O)O[C@H]1C(=O)[C@@]2(C)[C@H]([C@H](OC(=O)c3ccccc3)[C@]3(O)C[C@H](OC(=O)[C@H](O)[C@@H](NC(=O)c4ccccc4)c4ccccc4)C(C)=C1C3(C)C)[C@]1(OC(C)=O)CO[C@@H]1C[C@@H]2O` [Paclitaxel], under “after gamma irradiation at 25 KGy”, the “Assay WRT initial, % (percentage remaining after treatment)” value turned out to be 94.74%. Where the note is “paclitaxel content after gamma irradiation at 25 KGy”, the “Assay, % Post-irradiation” value turned out to be 94.74 ± 2.36%. The “Assay, % Initial” value (paclitaxel content before gamma irradiation) is reported as 100%.
